Consider five molecules from patent US20040043919A1, “Method for the treatment of neurological and neuropsychological disorders” (priority 2003, published 2004).

The test system of one experiment is rats. The conditions noted are these: administered into the dorsal periaqueductal gray matter; cited from earlier work.
The target of experiment [1] is T1, attractin from human plasma (Homo sapiens, UniProt O75882).
T1 construct: was prepared from 100 ml plasma from healthy humans; tissue Baxter GmbH Germany, Plasmazentrum Halle (supplier of the plasma); host or cells: human plasma
T1 sequence (O75882 84-1272 isoform O75882-2 limits assumed): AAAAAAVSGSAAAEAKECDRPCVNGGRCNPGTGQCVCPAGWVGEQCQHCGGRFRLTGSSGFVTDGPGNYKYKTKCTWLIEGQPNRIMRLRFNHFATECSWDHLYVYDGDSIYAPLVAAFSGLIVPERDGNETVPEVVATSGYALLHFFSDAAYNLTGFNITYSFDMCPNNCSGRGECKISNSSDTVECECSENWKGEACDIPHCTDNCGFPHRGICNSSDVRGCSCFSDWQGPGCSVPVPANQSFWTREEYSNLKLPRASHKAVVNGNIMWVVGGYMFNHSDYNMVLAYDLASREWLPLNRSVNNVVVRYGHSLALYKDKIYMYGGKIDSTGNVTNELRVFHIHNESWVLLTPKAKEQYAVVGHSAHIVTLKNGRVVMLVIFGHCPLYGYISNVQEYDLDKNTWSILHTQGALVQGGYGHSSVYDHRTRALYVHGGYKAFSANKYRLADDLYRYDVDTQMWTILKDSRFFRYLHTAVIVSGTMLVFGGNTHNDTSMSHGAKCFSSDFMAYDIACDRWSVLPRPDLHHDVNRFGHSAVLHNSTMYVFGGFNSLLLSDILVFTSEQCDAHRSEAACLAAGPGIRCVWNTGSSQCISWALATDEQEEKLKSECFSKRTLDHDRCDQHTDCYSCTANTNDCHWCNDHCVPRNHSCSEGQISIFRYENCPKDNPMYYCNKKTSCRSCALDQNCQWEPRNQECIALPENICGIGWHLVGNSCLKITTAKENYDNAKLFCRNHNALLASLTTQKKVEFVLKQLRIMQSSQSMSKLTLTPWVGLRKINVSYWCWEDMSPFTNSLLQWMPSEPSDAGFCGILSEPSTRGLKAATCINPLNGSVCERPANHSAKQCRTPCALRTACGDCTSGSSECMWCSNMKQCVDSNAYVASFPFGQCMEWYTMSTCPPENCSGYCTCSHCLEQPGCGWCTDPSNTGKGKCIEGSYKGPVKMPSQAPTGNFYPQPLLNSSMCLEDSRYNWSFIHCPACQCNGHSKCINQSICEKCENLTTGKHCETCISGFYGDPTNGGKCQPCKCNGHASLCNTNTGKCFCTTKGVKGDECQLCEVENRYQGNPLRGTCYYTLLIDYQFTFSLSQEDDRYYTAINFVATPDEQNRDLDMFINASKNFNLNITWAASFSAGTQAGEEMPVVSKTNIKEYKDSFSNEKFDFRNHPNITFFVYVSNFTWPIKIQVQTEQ
Briefly: Proteolytic activity of purified attractin (chromogenic substrate kinetics). Type of experiment: biochemical. The method, then:
(§1) Attractin from human plasma (Baxter GmbH Germany, Plasmazentrum Halle) was prepared from 100 ml plasma from healthy humans. Matrix-assisted laser desorption/ionisation mass spectrometry was carried out using the Hewlett-Packard G2025 LD-TOF System.
(§2) In further studies the proteolytic activity of attractin has been investigated. […] In addition, the cleavage of bioactive peptides such as NP Y, RANTES, GIP, and Glucagon by purified attractin has been analyzed. […] Previously, differences within hydrolysis of the chemokine RANTES by DP IV and attractin have been described^4.

Experiment [2] concerns olfactory bulbectomized rats. The settings on record: 7-day i.c.v. administration; cited from earlier work.
Experiment [3] concerns the target T1, attractin from human plasma. The experiment can be described thus: MALDI-TOF analysis of peptide cleavage by purified attractin in presence or absence of isoleucyl-thiazolidine. It is filed as biochemical. The conditions noted are these: peptide 25 μM, 37° C.; for Cleavage of bioactive peptide by purified attractin: tricine/HCl pH 7.6, MALDI-TOF (FIG. 1). As for the experimental part:
as §1
To obtain spectra of peptides (25 μM) by the treatment of purified DP IV and attractin in the presence or absence of isoleucyl-thiazolidine (10 μM), substrates were incubated at 37° C. with 40 mM tricine/HCl buffer pH 7.6 and enzyme solution in a 2:2:1 ratio. Samples of the reaction mixtures were removed at various time intervals and mixed with equal volumes of the matrix solution. By mixing assay sample and matrix, the low pH of the matrix solution stopped the enzymatic reaction. A small volume of this mixture was transferred to a probe tip and immediately evaporated in a Hewlett-Packard G2024A Sample Prep Accessory.
as §2

Experiment [4] can be described thus: Anxiolytic effect on administration of the attractin inhibitor. Type of experiment: in vivo. The conditions noted are these: no method or data given.

Take `NC(N)=NCCC[C@@H](NC(=O)C(c1ccccc1)c1ccccc1)C(=O)NCc1ccc(O)cc1` [BIBP3226]: the “Time spent in active social interaction” value with rats is recorded as “decreased the time spent in active social interaction”.
Consider `NCC(=O)N1CCCC1C(=O)Nc1ccc([N+](=O)[O-])cc1` (stereo not drawn) [Gly-Pro-pNA], for which, in experiment [1], the Km is 140 µM.
For Neuropeptide Y [NP Y], the “Behavioral and neurotransmitter deficits” value in experiment [2] is “attenuated behavioral and neurotransmitters deficits”. In addition, the “Cleavage of bioactive peptide by purified attractin” value in experiment [3] is “capable of releasing the N-terminal dipeptide Tyr-Pro”.
On to “RANTES1-15: synthetic N-terminal fragment 1-15 of the chemokine RANTES (SPYSSDTTPCCFAYI; UniProt P13501 24-38, looked up, fragment)”, for which the “Cleavage of bioactive peptide by purified attractin” value in experiment [3] was “capable of releasing sequentially the first (Ser-Pro) as well as the second dipeptide (Tyr-Ser)”.
As for isoleucyl-thiazolidine hemifumarate, in experiment [4], the Anxiolytic effect entry is given as “exhibits an anxiolytic effect”. Moreover, in experiment [3] (isoleucyl-thiazolidine 10 μM, pH 7.6, MALDI-TOF (FIG. 1B)), the “Cleavage of NP Y by attractin in presence of inhibitor” value was “the cleavage was suppressed”.

The Km is the substrate concentration at which the rate is half of its maximum.
